Assays:
[1] = system: L-687,414-induced hyperlocomotion; assay: L-687,414-induced hyperlocomotion; assay type: in vivo, mouse; settings: mice; dose 30 mg/kg ip, 15 min before s.c. 50 mg/kg L-687,414
Protocol: The described compounds of formula I reduce L-687,414-induced hyperlocomotion. This was assessed by using a computerized Digiscan 16 Animal Activity Monitoring System (Omnitech Electronics, Columbus, Ohio) to quantify locomotor activity. Animals were kept under a 12 h light/dark cycle and experiments were performed during the light period. Each activity monitoring chamber consisted of a Plexiglas box (41×41×28 cm; W×L×H) with sawdust bedding on the floor surrounded by invisible horizontal and vertical infrared sensor beams. The test boxes were divided by a Plexiglas cross providing each mouse with 20×20 cm of moving space. Cages were connected to a Digiscan Analyzer linked to a computer that constantly collected the beam status information. Records of photocell beam interruptions for individual animals were taken every 5 min over the duration of the experimental session and the sum of the first 6 periods was used as the final parameter. At least 8 mice were used in each treatment group. Compounds were administered i.p 15 min before a s.c. injection of 50 mg/kg of L-687,414. […] Horizontal activity was then recorded for a 30-min time period. The % inhibition of L-687,414-induced hyperlocomotion was calculated according to the equation: ((Veh+L−687,414 horizontal activity−drug+L−687,414 horizontal activity)/Veh+L−687,414 horizontal activity)×100 […]

[2] = system: behaviors of compound-treated mice; assay: SmartCube behavioral signature similarity analysis; assay type: in vivo, mouse; settings: for discrimination rate vs Clozapine (1.0 mg/kg) / discrimination rate vs Olanzapine (0.25 mg/kg) / discrimination rate vs Risperidone (0.06 mg/kg): SmartCube, test compound at 3 mg/kg i.p., rate of 0.70 or lower = similar; for SmartCube behavioral signature classification: mice, result in words
Text: authors described that hyperlocomotion induced by L-687,414 was inhibited by a series of known antipsychotic drugs. […] These findings predict antipsychotic activity for the present compounds, making them useful for the treatment of positive (psychosis) and negative symptoms of schizophrenia, substance abuse, alcohol and drug addiction, obsessive-compulsive disorders, cognitive impairment, bipolar disorders, mood disorders, major depression, resistant depression, anxiety disorders, Alzheimer's disease, autism, Parkinson's disease, chronic pain, borderline personality disorder, sleep disturbances, chronic fatigue syndrome, stiffness, antiinflammatory effects in arthritis and balance problems, epilepsy and neurodevelopmental disorders with co morbid epilepsy. In addition to the reversal of L-687,414 induced hyperlocomotion experiment as described above, some compounds of the present invention have been tested in SmartCube®, an automated system in which the behaviors of compound-treated mice in response to multiple challenges are captured by digital video and analyzed with computer algorithms (Roberds et al., Frontiers in Neuroscience, 2011, Vol. 5, Art. 103, 1-4; Vadim Alexandrov, Dani Brunner, Taleen Hanania, Emer Leahy Eur. J. Pharmacol. 2015, 750, 82-99). In this way, the neuro-pharmacological effects of a test compound can be predicted by similarity to major classes of compounds, such as antipsychotics, anxiolytics and antidepressants.
SmartCube® was used to compare the behavioral signature of a test compound to a database of behavioral signatures obtained from a large set of clinically approved reference drugs, grouped per indications. In this way, the neuro-pharmacological effects of a test compound can be predicted by similarity to major classes of compounds, such as antipsychotics, anxiolytics and antidepressants. This approach is ideally suited to screen collections of existing drugs or drug candidates with previously unknown neuropharmacology, which could expedite the development of new and unexpected treatments for psychiatric disorders.
Some compounds of the present invention were injected i.p. at different doses 15 minutes before the test. At least 8 mice were used in each treatment group. Digital videos of the subjects were processed with computer vision algorithms to extract over 2000 dependent measures including frequency and duration of many different behavioral states. The results of the classifications are presented as bar charts for each compound and dose (mg/kg), the Y-axis indicates the relative probability that the test compound will show efficacy in the specific CNS indication.
Compounds of the present invention show similar signatures to those of atypical antipsychotics. An independent analysis was performed on the unclassified data to determine the similarity of the example compounds to active doses of known atypical antipsychotics. For this analysis, we use discrimination rate as the measure of separability between the two drugs, i.e. one drug's “distinguishability” from another. A rate equal to 50% (or 0.5) corresponds to zero distinguishability. […] In most cases, the example compounds show a similarity to risperidone, clozapine and olanzapine with a discrimination rate of ≤0.70.

[3] = molecular target: T1, mouse ENT-1 transporter (Mus musculus, UniProt Q9JIM1); assay: ENT1 adenosine uptake inhibition ([3H]-adenosine transport activity); assay type: cell-based; settings: stable cells expressing mouse ENT-1; [2,8-3H]-adenosine 6 nM, 20 min
T1 construct: expressed in transfected cells
T1 sequence (Q9JIM1 1-460): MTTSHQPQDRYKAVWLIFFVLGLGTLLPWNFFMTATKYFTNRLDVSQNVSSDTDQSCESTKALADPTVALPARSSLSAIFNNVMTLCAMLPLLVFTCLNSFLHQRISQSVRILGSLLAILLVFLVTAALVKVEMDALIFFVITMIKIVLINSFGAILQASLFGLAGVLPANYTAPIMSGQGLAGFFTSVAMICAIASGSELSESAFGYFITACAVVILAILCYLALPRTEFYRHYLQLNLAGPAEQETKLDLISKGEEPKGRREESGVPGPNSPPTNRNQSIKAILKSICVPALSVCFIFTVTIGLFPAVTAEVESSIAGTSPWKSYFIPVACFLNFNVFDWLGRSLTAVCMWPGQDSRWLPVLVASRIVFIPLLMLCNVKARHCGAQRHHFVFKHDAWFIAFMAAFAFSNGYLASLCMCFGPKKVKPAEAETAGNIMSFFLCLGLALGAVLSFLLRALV
Protocol: To measure adenosine transport activity of ENT-1 mammalian cells, stable cells expressing the mouse ENT-1 transporter were plated on day 1 in 96-well culture plates at the density of 60,000 cells/well, in complete DMEM/F12 medium supplemented with glutamax, 10% FBS and 10 μg/ml puromycin. On day 2, the medium was aspirated and the cells were washed twice with uptake buffer (10 mM Hepes-Tris, pH 7.4 containing 150 mM NaCl, 1 mM CaCl2, 2.5 mM KCl, 2.5 mM MgSO4, 10 mM D-glucose) (UB). For inhibition experiments, cells were then incubated at RT with various concentrations of compounds with 1% DMSO final. Non-specific uptake was defined in the presence of 10 μM S-(4-Nitrobenzyl)-6-thioinosine (NBTI, Sigma Cat #N2255).
A solution containing [2,8-^3H]-adenosine 6 nM (40 Ci/mmol, American Radiolabeled chemicals Inc, Cat #ART 0287A) was then immediately added to the wells. The plates were then incubated for 20 min with gentle shaking and the reaction was stopped by aspiration of the mixture and washing (three times) with ice-cold UB. The cells were lysed by the addition of scintillation liquid, shaken 3 hours and the radioactivity in the cells was estimated using a microplates scintillation counter (TopCount NXT, Packard).

| Compound | Inhibition, ip of L-687,414-induced hyperlocomotion [1] [%] | discrimination rate vs Clozapine (1.0 mg/kg) [2] | discrimination rate vs Olanzapine (0.25 mg/kg) [2] | discrimination rate vs Risperidone (0.06 mg/kg) [2] | SmartCube behavioral signature classification [2] | IC50 [3] [µM] |
| --- | --- | --- | --- | --- | --- | --- |
| COc1cncc(N2C(=O)C(C)(C)c3ccc(-c4cnc(C)nc4)cc32)c1 [Example 2, 1-(5-Methoxypyridin-3-yl)-3,3-dimethyl-6-(2-methylpyrimidin-5-yl)indolin-2-one] | 93.6 | 0.58 | 0.68 | 0.51 | similarity to atypical antipsychotics | 0.438 |
| COc1ccc(N2C(=O)C(C)(C)c3ccc(-c4cnc(C)nc4)cc32)nn1 [Example 12, 1-(6-Methoxypyridazin-3-yl)-3,3-dimethyl-6-(2-methylpyrimidin-5-yl)indolin-2-one] | 94.6 | 0.67 | 0.63 | 0.56 | similarity to atypical antipsychotics | 0.0348 |
| Cc1ncc(-c2ccc3c(c2)N(c2cnc4c(c2)OCCN4)C(=O)C3(C)C)cn1 [Example 8, 1-(3,4-Dihydro-2H-pyrido[3,2-b][1,4]oxazin-7-yl)-3,3-dimethyl-6-(2-methylpyrimidin-5-yl)indolin-2-one] | – | – | – | – | – | 0.951 |
| Cc1ncc(-c2ccc3c(c2)N(c2ccc(O)nn2)C(=O)C3(C)C)cn1 [Example 13, 1-(6-Hydroxypyridazin-3-yl)-3,3-dimethyl-6-(2-methylpyrimidin-5-yl)indolin-2-one] | – | – | – | – | – | 0.615 |

Reference: patent US10457667B2, “Indolin-2-one derivatives” (Hoffmann-La Roche Inc., priority 2015, dated 2019)
